Assay results: article PMC9486168, “Protein-protein interaction-based high throughput screening for adenylyl cyclase 1 inhibitors: Design, implementation, and discovery of a novel chemotype” (Frontiers in Pharmacology, 2022)
Counter-ions that a name gives are not always drawn.

Legend:
AC8-C2b/CaM = target: T1, AC8-C2b/CaM (Homo sapiens, UniProt P0DP23); experiment: AC8-C2b/CaM FP counterscreen assay; assay type: binding; conditions: for Ki: Cheng-Prusoff from FP IC50 and Kd, n/i given where none; for Ki ratio (AC8-C2b/AC1): ratio >1: more potent in AC1/CaM FP;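 on all read-outs here: fluorescence polarization of AC peptide binding to GST-CaM in HEPES buffer with KCl and 50 µM CaCl2, compound preincubated 30 min with GST-CaM, DMSO and calmidazolium as controls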
T1 construct: made in house; host or cells: E. coli BL21-CodonPlus (DE3)-RIPL

AC8-Nt/CaM = target: T2, AC8-Nt/CaM (Homo sapiens, UniProt P0DP23); experiment: AC8-Nt/CaM FP counterscreen assay; assay type: binding; conditions: for Ki: Cheng-Prusoff from FP IC50 and Kd, n/i given where none; for Ki ratio (AC8 NT/AC1): ratio >1: more potent in AC1/CaM FP;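 on all read-outs here: fluorescence polarization of AC peptide binding GST-CaM in HEPES buffer with CaCl2, compound preincubated with CaM 30 min, peptide read after 2 h at room temperature in dark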
T2 construct: made in house; host or cells: E. coli BL21-CodonPlus (DE3)-RIPL

AC1/CaM PPI = target: T3, AC1/CaM PPI (Homo sapiens, UniProt P0DP23); experiment: AC1/CaM NanoBiT assay in HEK293T cells; assay type: cell-based; conditions: HEK293T, thapsigargin-stimulated, AUC; read-out: Nanobit: AC1-CaM IC50 (μM ± SEM)
T3 construct: human AC1 (hAC1) residues 1–1,118 were cloned; The hCaM residues 1–149, residues 1–1,248 of rat AC8 (rAC8); expressed in transfected cells; host or cells: HEK293T, transient transfection

HEK293T cells = experiment: CellTiter-Glo 2.0 cell viability assay; assay type: cell-based; conditions: for decrease in cell viability at AC1/CaM IC50: at AC1/CaM NanoBiT IC50;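 on all read-outs here: luminescence read-out after 30 min compound exposure at 37 °C in HEPES-buffered HBSS, scaled to vehicle-treated cells as 100% and cell-free buffer wells as 0%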
[1] = CellTiter-Glo 2.0 cell viability assay; assay type: cell-based; conditions: human, HEK293T cells, pH 7.4; at the compound's AC1/CaM NanoBiT IC50 concentration; read-out: % Viable Cells at AC1 IC50;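 further: luminescence read-out after 30 min compound exposure at 37 °C in HEPES-buffered HBSS, scaled to vehicle-treated cells as 100% and cell-free buffer wells as 0%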
AC1-C1b/CaM = target: T4, AC1-C1b/CaM (Homo sapiens, UniProt P0DP23); experiment: AC1-C1b/CaM fluorescence polarization (FP) assay; assay type: binding; conditions: for IC50: 100 nM AC1-C1b, 100 nM GST-CaM, 95% CI in brackets; for Ki: Cheng-Prusoff from FP IC50 and Kd; for AC1-CaM FP % inhib: relative to 100 μM CDZ (100% inhibition), highest concentration tested
T4 construct: made in house; host or cells: E. coli BL21-CodonPlus (DE3)-RIPL

AC8/CaM PPI = target: T5, AC8/CaM PPI (Homo sapiens, UniProt P0DP23); experiment: AC8/CaM NanoBiT assay in HEK293T cells; assay type: cell-based, rat; conditions: HEK293T, thapsigargin-stimulated, AUC; read-out: Nanobit: AC8-CaM IC50 (μM ± SEM)
T5 construct: confirmed as an AC1/AC8 non-selective hit against full-length AC1- and AC8-CaM in the NanoBiT assay; The hCaM residues 1–149, residues 1–1,248 of rat AC8 (rAC8); expressed in transfected cells; host or cells: HEK293T, transient transfection

SMILES | Ki (AC8-C2b/CaM) [µM] | Ki ratio (AC8-C2b/AC1) (AC8-C2b/CaM) | Ki (AC8-Nt/CaM) [µM] | Ki ratio (AC8 NT/AC1) (AC8-Nt/CaM) | IC50 (AC1/CaM PPI) [µM] | IC50 (AC1-C1b/CaM) [µM] | Ki (AC1-C1b/CaM) [µM] | IC50 (AC8/CaM PPI) [µM] | AC1-CaM FP % inhib (AC1-C1b/CaM) [%] | decrease in cell viability at AC1/CaM IC50 (HEK293T cells) | viability at 30 min [1] [%] | decrease in cell viability at 100 μM (HEK293T cells; 100 μM) [%] | cell viability reduced at highest concentration tested (HEK293T cells; 316 μM) [%]
Cc1cc2nc3ccc(N(C)C)cc3[s+]c2cc1N [Compound 1, Tolonium Chloride] | 0.44 | 1.5 | 2.3 | 7.9 | 32.9 ± 1.01 | 1.24 | 0.29 | 8.4 ± 1.19 | – | greater than 10% | 80 | – | –
CCCCCCCCOc1ccccc1C(=O)Nc1ccc(C(=O)OCC[N+](C)(CC)CC)cc1 [Compound 7, Otilonium] | 10.3 | 2.5 | 6.3 | 1.6 | 18.8 ± 1.16 | 17.1 | 4.1 | 12.8 ± 1.22 | 92 | – | 96 | – | ~50
O=C1c2c(O)ccc(O)c2C(=O)c2c(NCCNCCO)ccc(NCCNCCO)c21 [Compound 11, Mitoxantrone HCl] | 8.2 | 1.3 | 41.1 | 6.3 | 44 ± 1.15 | 27.5 | 6.5 | 29.8 ± 1.18 | 40 | greater than 10% | 87 | – | –

Continued, in another order:

Ki (AC8-C2b/CaM) [µM] | Ki ratio (AC8-C2b/AC1) (AC8-C2b/CaM) | Ki (AC8-Nt/CaM) [µM] | Ki ratio (AC8 NT/AC1) (AC8-Nt/CaM) | IC50 (AC1/CaM PPI) [µM] | IC50 (AC1-C1b/CaM) [µM] | Ki (AC1-C1b/CaM) [µM] | IC50 (AC8/CaM PPI) [µM] | AC1-CaM FP % inhib (AC1-C1b/CaM) [%] | SMILES | decrease in cell viability at AC1/CaM IC50 (HEK293T cells) | viability at 30 min [1] [%] | decrease in cell viability at 100 μM (HEK293T cells; 100 μM) [%] | cell viability reduced at highest concentration tested (HEK293T cells; 316 μM) [%]
2.6 | 3.9 | 1.1 | 1.6 | 17.9 ± 1.15 | 2.8 | 0.67 | 16.5 ± 1.15 | 103 | CCCCC(CC)CNC(=N)NC(=N)NCCCCCCNC(=N)NC(=N)NCC(CC)CCCC (stereo not shown) [Compound 3, Alexidine] | 25% | 75 | 70 | –
20.8 | 4.0 | 13.8 | 2.7 | 111 ± 1.23 | 22 | 5.2 | 47.1 ± 1.35 | 15 | [H]/N=C(\N/C(=N/[H])NCCCCCCNC(=N)NC(=N)Nc1ccc(Cl)cc1)Nc1ccc(Cl)cc1 [Compound 9, Chlorhexidine HCl] | greater than 10% | 80 | – | –
